Test [1] has as its target T1, human TRPV1 receptor (hTRPV1) (Homo sapiens (Human), UniProt Q8NER1). Kind of test: Acid activation assay (pH 5.0, FLIPR intracellular Ca2+). Type of test: cell-based. The note with it: Table 1; 37.5 μM antagonist, percentage of the maximal pH 5.0-induced response remaining; read-out: hTRPV1 H+ (max % remain). On the procedure:
Dulbecco's modified Eagle's medium (DMEM) with 4.5 mg/mL D-glucose, fetal bovine serum, L-glutamine, and 2-morpholinoethanesulfonic acid (MES) were purchased from Sigma-Aldrich Co. (St. Louis, Mo.). Dulbecco's phosphate-buffered saline (DPBS) with Ca^2+, Mg^2+, and 1 mg/mL D-glucose (pH 7.4), Geneticin®, 0.25% trypsin-1 mM EDTA, and penicillin-streptomycin were purchased from Invitrogen Corp. (Carlsbad, Calif.). The FLIPR® Calcium 4 assay kit was purchased from Molecular Devices (Sunnyvale, Calif.).
The cDNAs for the human TRPV1 receptor (hTRPV1) were isolated by reverse transcriptase-polymerase chain reaction (RT-PCR) from human small intestine poly A+RNA supplied by Clontech (Palo Alto, Calif.) using primers designed surrounding the initiation and termination codons identical to the published sequences (Hayes et al. Pain 2000, 88, 205-215). The resulting cDNA PCR products were subcloned into pCIneo mammalian expression vector (Promega) and fully sequenced using fluorescent dye-terminator reagents (Prism, Perkin-Elmer Applied Biosystems Division) and a Perkin-Elmer Applied Biosystems Model 373 DNA sequencer or Model 310 genetic analyzer. Expression plasmids encoding the hTRPV1 cDNA were transfected individually into 1321N1 human astrocytoma cells using Lipofectamine. Forty-eight hours after transfection, the neomycin-resistant cells were selected with growth medium containing 800 μg/mL Geneticin (Gibco BRL). Surviving individual colonies were isolated and screened for TRPV1 receptor activity. Cells expressing recombinant homomeric TRPV1 receptors were maintained at 37° C. in DMEM containing 4 mM L-glutamine, 300 μg/mL G418 (Cal-biochem) and 10% fetal bovine serum under a humidified 5% CO2 atmosphere.
The functional activity of compounds at the TRPV1 receptor was determined by measurement of intracellular Ca^2+ levels ([Ca^2+]i) using the Fluorescence Imaging Plate Reader (FLIPR)^TETRA®. All compounds were tested over a 12-point one-half-log concentration range. Compound stocks, 10 mM, were prepared in DMSO, and diluted serially across a 384-well plate using a Bravo BenchCel workstation (Agilent Technologies, Santa Clara, Calif.).
On the day of the experiment growth medium was removed, and the no-wash FLIPR® Calcium-4 dye (λEX=470-495 nm, λEM=515-575 nm) was added to each well using the Multidrop® dispenser. Cells were incubated for 90-120 minutes in the dark at 25° C. Test compounds were dissolved in DMSO, and plates were prepared using an Agilent Bravo workstation (Agilent Technologies Inc., Santa Clara, Calif.). Compounds were added to the cells 3 minutes prior to the addition of a pH 5.0 solution. Reagents were delivered at a rate of 40 μL/sec, and the final assay volume was 80 μL. Acidic pH solutions were prepared by titration of DPBS/MES with 1 N HCl. The intensity of the fluorescence was captured and digitally transferred to an interfaced PC.

The target of test [2] is T1, human TRPV1 receptor (hTRPV1). Kind of test: Capsaicin activation assay (FLIPR intracellular Ca2+). Type of test: cell-based. The note with it: Table 1; inhibition of capsaicin-induced intracellular Ca2+ increase, HEK293 cells expressing human TRPV1; read-out: hTRPV1 cap IC50. On the procedure:
Dulbecco's modified Eagle medium (D-MEM) (with 4.5 mg/mL glucose) and fetal bovine serum were obtained from Hyclone Laboratories, Inc. (Logan, Utah). Dulbecco's phosphate-buffered saline (D-PBS) (with 1 mg/mL glucose and 3.6 mg/l Na pyruvate, without phenol red), L-glutamine, hygromycin B, and Lipofectamine® were obtained from Life Technologies (Grand Island, N.Y.). G418 sulfate was obtained from Calbiochem-Novabiochem Corp. (San Diego, Calif.). Capsaicin (8-methyl-N-vanillyl-6-nonenamide) was obtained from Sigma-Aldrich, Co. (St. Louis, Mo.). Fluo-4 AM (N-[4-[6-[(acetyloxy)methoxy]-2,7-difluoro-3-oxo-3H-xanthen-9-yl]-2-[2-[2-[bis[2-[(acetyloxy)methoxy]-2-oxyethyl]amino]-5-methyl phenoxy]ethoxy]phenyl]-N-[2-[(acetyloxy)methoxy]-2-oxyethyl]-glycine, (acetyloxy)methyl ester) was purchased from Molecular Probes (Eugene, Oreg.). […]
The functional activity of compounds at the TRPV1 receptor was determined by measurement of intracellular Ca^2+ levels ([Ca^2+]i) using the Fluorescence Imaging Plate Reader (FLIPR)^TETRA®. All compounds were tested over a 12-point one-third-log concentration range. Compound stocks, 10 mM, were prepared in DMSO, and diluted serially across a 384-well plate using a Bravo BenchCel workstation (Agilent Technologies, Santa Clara, Calif.). A stock concentration of capsaicin (10 mM) was made in DMSO, and diluted in D-PBS to a final concentration of 200 nM (4×). On the day prior to the experiment, recombinant HEK293 cells that stably express human TRPV1 were removed from tissue culture flasks and plated in growth medium into black-walled clear-bottom 384-well Biocoat™ poly-D-lysine assay plates (BD Biosciences, Bedford, Mass.) using a Multidrop® dispenser (ThermoScientific, Waltham, Mass.). On the day of the experiment, growth medium was removed, and the no-wash FLIPR® Calcium-4 dye (λEX=470-495 nm, λEM=515-575 nm; Molecular Devices, Sunnyvale, Calif.) was added to each well using the Multidrop® dispenser. Cells were incubated for 90-120 minutes in the dark at room temperature. Test compounds were added to the cells 3 minutes prior to the addition of 200 nM capsaicin (4×), and the final assay volume was 80 μL. Fluorescence readings were made at 1 to 5 second intervals over the course of the experimental run. The peak increase in relative fluorescence units (minus baseline) was calculated, and expressed as a percentage of the 50 nM capsaicin (control) response.

This note sets out measurements from US8802711B2, “TRPV1 antagonists” (AbbVie Inc., priority 2011, dated 2014).

SMILES strings stand for the structures.

T1 sequence (Q8NER1 whole entry): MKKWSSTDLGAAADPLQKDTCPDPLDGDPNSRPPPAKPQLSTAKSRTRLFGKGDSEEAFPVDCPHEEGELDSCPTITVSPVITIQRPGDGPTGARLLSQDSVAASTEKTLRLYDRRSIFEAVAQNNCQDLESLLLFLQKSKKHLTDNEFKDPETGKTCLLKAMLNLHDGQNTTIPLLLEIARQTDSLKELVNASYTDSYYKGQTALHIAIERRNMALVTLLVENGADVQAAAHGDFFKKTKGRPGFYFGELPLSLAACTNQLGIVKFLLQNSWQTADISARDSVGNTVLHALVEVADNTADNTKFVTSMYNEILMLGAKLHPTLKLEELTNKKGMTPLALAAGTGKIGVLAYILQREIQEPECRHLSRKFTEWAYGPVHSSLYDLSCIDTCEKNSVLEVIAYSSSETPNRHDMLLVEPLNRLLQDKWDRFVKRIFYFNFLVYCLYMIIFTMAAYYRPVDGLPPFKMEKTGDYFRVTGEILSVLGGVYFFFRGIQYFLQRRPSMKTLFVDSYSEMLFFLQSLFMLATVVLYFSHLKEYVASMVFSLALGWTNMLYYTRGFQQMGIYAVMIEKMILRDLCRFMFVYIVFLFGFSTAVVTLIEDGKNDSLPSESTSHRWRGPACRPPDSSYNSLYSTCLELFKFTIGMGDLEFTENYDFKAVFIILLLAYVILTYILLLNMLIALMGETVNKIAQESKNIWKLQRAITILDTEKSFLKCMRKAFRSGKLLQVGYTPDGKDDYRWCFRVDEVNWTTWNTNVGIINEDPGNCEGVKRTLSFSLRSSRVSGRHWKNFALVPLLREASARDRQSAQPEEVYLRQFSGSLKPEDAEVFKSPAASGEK

A word on the IC50: it is the point on the concentration scale where inhibition reaches its midpoint. Turning to `O=C(Nc1cccc2c1C[C@@H](O)CC2)N[C@@H]1CC[C@@H](c2ccccc2)C1` [Compound F, 1-[(7S)-7-hydroxy-5,6,7,8-tetrahydronaphthalen-1-yl]-3-[(1R,3R)-3-phenylcyclopentyl]urea, reference compound], the remaining activity at 37.5 µM in test [1] worked out at 6%. The 50% inhibitory concentration (IC50) in test [2] was found to be 5 nM.

Take `O=C(Nc1cccc2c1C[C@H](O)CC2)N[C@@H]1CC[C@H](c2ccccc2)C1` [Compound G, 1-[(7R)-7-hydroxy-5,6,7,8-tetrahydronaphthalen-1-yl]-3-[(1R,3S)-3-phenylcyclopentyl]urea, reference compound]: in test [1], the remaining activity at 37.5 µM was 2%. In addition, the IC50 in test [2] worked out at 4 nM.

For the compound `O=C(Nc1cccc2c1C[C@H](O)C2)N[C@@H]1CC[C@H](c2ccccc2)C1` [Example 1, 1-[(2R)-2-hydroxy-2,3-dihydro-1H-inden-4-yl]-3-[(1R,3S)-3-phenylcyclopentyl]urea], the remaining activity at 37.5 µM in test [1] was 93%. Further, the IC50 in test [2] was found to be 106 nM.

Consider `C[C@H]1Oc2c(NC(=O)N[C@@H]3CC[C@H](c4ccccc4)C3)cccc2NC1=O` [Example 3, 1-[(2R)-2-methyl-3-oxo-3,4-dihydro-2H-1,4-benzoxazin-8-yl]-3-[(1R,3S)-3-phenylcyclopentyl]urea], for which the remaining activity at 37.5 µM in test [1] was 2%. For the same compound, in test [2], the IC50 was determined as 55 nM.

Consider `O=C1CCc2ccc(NC(=O)N[C@@H]3CC[C@H](c4ccccc4)C3)cc2N1` [Example 5, 1-(2-oxo-1,2,3,4-tetrahydroquinolin-7-yl)-3-[(1R,3S)-3-phenylcyclopentyl]urea], for which the remaining activity at 37.5 µM in test [1] was found to be 81%. Besides, the IC50 in test [2] worked out at 70 nM.

As to `O=C(Nc1cccc2c1C[C@H](O)C2)N[C@H]1CC[C@H](c2ccccc2)C1` [Example 8, 1-[(2R)-2-hydroxy-2,3-dihydro-1H-inden-4-yl]-3-[(1S,3S)-3-phenylcyclopentyl]urea], the remaining activity at 37.5 µM in test [1] is 78%. Moreover, the half-inhibitory concentration (IC50) in test [2] was 123 nM.

`O=C(Nc1cccc2c1C[C@@H](O)C2)N[C@H]1CC[C@H](c2ccccc2)C1` [Example 9, 1-[(2S)-2-hydroxy-2,3-dihydro-1H-inden-4-yl]-3-[(1S,3S)-3-phenylcyclopentyl]urea]: the remaining activity at 37.5 µM in test [1] amounted to 14%. The IC50 in test [2] came to 205 nM.

With `C[C@H]1Oc2c(NC(=O)N[C@H]3CC[C@H](c4ccccc4)C3)cccc2NC1=O` [Example 10, 1-[(2R)-2-methyl-3-oxo-3,4-dihydro-2H-1,4-benzoxazin-8-yl]-3-[(1S,3S)-3-phenylcyclopentyl]urea], the remaining activity at 37.5 µM in test [1] came out at 3%. The IC50 in test [2] stood at 84 nM.

For `Cn1ncc2c(NC(=O)N[C@H]3CC[C@H](c4ccccc4)C3)cccc21` [Example 11, 1-(1-methyl-1H-indazol-4-yl)-3-[(1S,3S)-3-phenylcyclopentyl]urea], the remaining activity at 37.5 µM in test [1] amounted to 49%. For the same compound, the IC50 in test [2] amounted to 84 nM.

On to `O=C1CCc2ccc(NC(=O)N[C@H]3CC[C@H](c4ccccc4)C3)cc2N1` [Example 12, 1-(2-oxo-1,2,3,4-tetrahydroquinolin-7-yl)-3-[(1S,3S)-3-phenylcyclopentyl]urea], for which, in test [1], the remaining activity at 37.5 µM was 65%. The IC50 in test [2] was 207 nM.

For `Cc1cc2c(NC(=O)N[C@H]3CC[C@H](c4ccccc4)C3)c(F)ccc2cn1` [Example 13, 1-(6-fluoro-3-methylisoquinolin-5-yl)-3-[(1S,3S)-3-phenylcyclopentyl]urea], in test [1], the remaining activity at 37.5 µM came out at 60%. Moreover, the IC50 in test [2] is 13 nM.

In the case of `O=C(Nc1cccc2c1C[C@H](O)C2)N[C@@H]1CC[C@@H](c2ccccc2)C1` [Example 15, 1-[(2R)-2-hydroxy-2,3-dihydro-1H-inden-4-yl]-3-[(1R,3R)-3-phenylcyclopentyl]urea], the remaining activity at 37.5 µM in test [1] worked out at 20%. In addition, the concentration for half-maximal inhibition (IC50) in test [2] came to 179 nM.

For the compound `O=C(Nc1cccc2c1C[C@@H](O)C2)N[C@@H]1CC[C@@H](c2ccccc2)C1` [Example 16, 1-[(2S)-2-hydroxy-2,3-dihydro-1H-inden-4-yl]-3-[(1R,3R)-3-phenylcyclopentyl]urea], the remaining activity at 37.5 µM in test [1] was found to be 87%. The IC50 in test [2] stood at 80 nM.

For the compound `C[C@H]1Oc2c(NC(=O)N[C@@H]3CC[C@@H](c4ccccc4)C3)cccc2NC1=O` [Example 17, 1-[(2R)-2-methyl-3-oxo-3,4-dihydro-2H-1,4-benzoxazin-8-yl]-3-[(1R,3R)-3-phenylcyclopentyl]urea], the remaining activity at 37.5 µM in test [1] is 25%. For the same compound, the half-inhibitory concentration (IC50) in test [2] was 373 nM.

Turning to `Cn1ncc2c(NC(=O)N[C@@H]3CC[C@@H](c4ccccc4)C3)cccc21` [Example 18, 1-(1-methyl-1H-indazol-4-yl)-3-[(1R,3R)-3-phenylcyclopentyl]urea], the remaining activity at 37.5 µM in test [1] amounted to 18%. In test [2], the half-inhibitory concentration (IC50) came out at 70 nM.

For the compound `O=C1CCc2ccc(NC(=O)N[C@@H]3CC[C@@H](c4ccccc4)C3)cc2N1` [Example 19, 1-(2-oxo-1,2,3,4-tetrahydroquinolin-7-yl)-3-[(1R,3R)-3-phenylcyclopentyl]urea], the remaining activity at 37.5 µM in test [1] was 81%. For the same compound, the IC50 in test [2] is greater than 37500 nM.

In the case of `O=C(Nc1cccc2c1C[C@H](O)C2)N[C@H]1CC[C@@H](c2ccccc2)C1` [Example 22, 1-[(2R)-2-hydroxy-2,3-dihydro-1H-inden-4-yl]-3-[(1S,3R)-3-phenylcyclopentyl]urea], in test [1], the remaining activity at 37.5 µM came out at 41%. Further, in test [2], the IC50 came out at 286 nM.

In the case of `O=C(Nc1cccc2c1C[C@@H](O)C2)N[C@H]1CC[C@@H](c2ccccc2)C1` [Example 23, 1-[(2S)-2-hydroxy-2,3-dihydro-1H-inden-4-yl]-3-[(1S,3R)-3-phenylcyclopentyl]urea], in test [1], the remaining activity at 37.5 µM was 88%. Besides, the IC50 in test [2] is 138 nM.

As to `C[C@H]1Oc2c(NC(=O)N[C@H]3CC[C@@H](c4ccccc4)C3)cccc2NC1=O` [Example 24, 1-[(2R)-2-methyl-3-oxo-3,4-dihydro-2H-1,4-benzoxazin-8-yl]-3-[(1S,3R)-3-phenylcyclopentyl]urea], in test [1], the remaining activity at 37.5 µM amounted to 1%. The IC50 in test [2] came to 85 nM.

Regarding `Cn1ncc2c(NC(=O)N[C@H]3CC[C@@H](c4ccccc4)C3)cccc21` [Example 25, 1-(1-methyl-1H-indazol-4-yl)-3-[(1S,3R)-3-phenylcyclopentyl]urea], in test [1], the remaining activity at 37.5 µM is 46%. Further, the IC50 in test [2] amounted to 628 nM.
